In patent publication US20230302022A1, “PREVENTING OR MITIGATING CHEMOTHERAPY INDUCED ALOPECIA USING VITAMIN D” (priority 2016, published 2023):

Key:
[1] = tested on: chloroleukemia C51 cells; conditions: 0.2 μg pretreatment prior to cyclophosphamide; cited from earlier work
[2] = tested on: HEKa cells; assay: Real-time PCR Neuroscience Ion Channels and Transporters array, calcitriol-treated HEKa cells; format: cell-based, human; conditions: 0.1 μg/mL calcitriol, three independent experiments; for KCNB2 mRNA Regulation Pattern: until 24 hours
Procedure: (§1) The PCR array analysis utilized two groups of genes—those related to Heat Shock Proteins (SABiosciences), and those related to Neuroscience Ion Channels and Transporters (SABioscience). Cell culture: Primary human epidermal keratinocytes (HEKa) were maintained in Epilife Medium (Cascade Biologics, Inc., Portland OR) along with Human Keratinocyte Growth Supplement (Cascade Biologics, Inc., Portland OR). […] D3 treatment of HEKa cells: […] Vehicle control group of cells were treated with 5 mL media containing 1 μL of ethanol. Cells were harvested 3, 6, 16, 24, 48, or 72 hours after the start of the treatment. RNA isolation: Cells were lysed for RNA isolation at different treatment times using the RNeasy Mini kit (Qiagen, Inc., Valencia CA) following the manufacturer's instructions. RNA was quantified by measuring optical density at 260 nm. First Strand Synthesis: […] Real-time PCR: Products from the first strand synthesis were diluted with water, mixed with the SYBR green master mix (SABiosciences., Frederick MD) and loaded onto PCR arrays. Real time PCR was run on the PCR Arrays (Heat Shock Protein Arrays, and Neuroscience and Ion Channel Arrays) (SABiosciences, Frederick MD) on a Biorad CFX96. Data analyses were performed using the PCR array data analysis software available on the SABiosciences website.

[3] = tested on: C3H/HeJ mouse; assay: C3H/HeJ model of alopecia areata; format: in vivo; conditions: 0.2 μg for 15 days, observed 30 days
Excerpt: Neonatal Rat model and PCA model. Sprague Dawley rats were purchased from Charles River Laboratories (Wilmington, MA). C3H/HeJ mouse were purchased from Jackson Laboratories (Bar Harbour, ME). Rodents were housed and fed according to NIH guidelines. […] Uskokovic (Hoffman-La Roche, Nutley, NJ). For experiments involving C3H/HeJ mice, 1,25(OH)2D3 was purchased from Sigma (St. Louis, M0). C3H/HeJ Model of Abpecia Areata. Retired breeders (8 months of age) were observed daily for the development of AA lesions.

[4] = Quantification of calcitriol in ex vivo porcine skin layers after 7 days of dermal administration; conditions: for Stratum Corneum, Calcitriol Recovered: 10 μg/mL, mean ± SD
Procedure: The placebo and test articles were administered dermally twice daily approximately 6 hours apart for 7 days during the study. The dose concentrations were 0, 1, 3, 10, 30, and 100 μg/mL, and administered at an application rate of 4 mg/cm^2 (equivalent to 144 mg or 166 μL of test solution). Prior to initiation of administration (Days −4 and −5 for Groups 1 and 2, respectively), the hair was clipped from the application sites using an electric clipper. Care was taken to avoid abrading the skin. The dorsal surface of each animal was divided into five application sites for Group 1 and two application sites for Group 2. Each application site was approximately 6×6 cm with at least a 2 cm space between each site. The placebo and test article formulations were uniformly applied over the specified application site with a glass stirring rod or appropriate instrument. Prior to dosing, the residual test article from the previous dose was gently removed using a soft paper towel (i.e., WyPall®) moistened with tap water.
At the end of the study, the skin was reflected from a ventral midline incision, and sections of treated and untreated skin were collected and preserved. Sections of each 6×6 cm dosing site were first thoroughly surface washed with a mild soap and water mixture (e.g., 1% Ivory Soap in water or equivalent) to remove any residual topical test formulation. The washed skin sections were then wiped clean with ethanol, and were excised down to and including the adipose layer. If the area to be excised is larger than the dosed area, the dosed area was demarked with indelible ink to delineate the skin area that was dosed. The 1.5 cm×1.5 cm sections were laid flat, wrapped in two layers of Saran wrap (or equivalent) and flash frozen in liquid nitrogen. The samples were stored at −70° C. and shipped on dry ice via overnight courier for analysis. Each skin section was identified as appropriate (e.g., animal identification, study number, date, etc.).
Upon arrival at the analysis site, skin sections were placed in water tight plastic bag and thawed by emersion in warm water (˜30° C.-35° C.). Each skin section was gently rinsed with distilled de-ionized water to remove any residual test article and blood. All subcutaneous tissue (e.g., adipose) was removed by manual scalpel ablation. Within the central region of the dosed area, four individual 1 cm^2 circles (replicates) were demarked, and each site was subsequently identified and the actual area recorded. […] The skin sections were weighed and the weight recorded. […]
Following tape stripping, the skin was separated into epidermis (sans stratum corneum, simply referred to herein after as “epidermis”) and dermis by heat exposure to 60° C. for approximately 1-1.5 minutes. […] The epidermis and dermis were weighed and the weight recorded. […]

[5] = tested on: HEKa cells; assay: Real-time PCR Heat Shock Protein array, calcitriol-treated HEKa cells; format: cell-based, human; conditions: 0.1 μg/mL calcitriol, two independent experiments
Procedure: as §1

[6] = tested on: NIH-3T3 (immortalized fibroblast); assay: Cell growth / viability assay, NIH-3T3; format: cell-based
Procedure: (§2) The drug treatment period was usually three days. At the end of the three days, the background OD of the 96-well plate was read at 280 nm, before 20 μL of the “Substrate Cell Titer 96 Aqueous One Solution Reagent” (Promega) was added to each well. […] The net OD increase was calculated by subtracting the pre-substrate OD reading. The impact of the drug on the cells was calculated by comparing the OD at different concentrations in relation to the OD of the control wells (without the drug). The results of the Net OD as a function of drug concentration was plotted and used to determine ED50 values.

[7] = tested on: patients; assay: Phase I dose-escalation study: safety and tolerability in cancer patients on taxane-based chemotherapy; format: in vivo
Procedure: The dosage will be escalated if the clinical toxicity is declared acceptable (see below). five dose levels will be considered for escalation (10, 20, 40, 60 and 80 μg/mL). Determination of dose limiting toxicity (DLT, defined in section 8.2) will be made during the first 28 days of topical treatment. No intrapatient dose escalation will be performed. […] The dose escalation scheme (Table 8.1) will occur as follows:
If the patient presents with symptoms of hypercalcemia, serum calcium should be determined and treatment should be stopped immediately. Hypercalcemia will be defined using CTCAE version 4.0 grade 3 (or higher), which is defined as serum calcium >12.5-13.5 mg/dL; >3.1-3.4 mmol/L or ionized calcium >1.6-1.8 mmol/L and hospitalization is indicated. For patients with asymptomatic hypercalcemia determined by elevated serum calcium, their ionized calcium levels will first be checked. If the ionized calcium level is in fact elevated, the study drug will be stopped. If the ionized calcium level is normal, the patient will remain on the study and ionized calcium will be followed rather than serum calcium.
Each patient underwent PK analysis, adverse event monitoring, patient self-assessment diaries (1-10 scale), and blinded photographic assessments. […] Toxicity was determined on a weekly basis during Cycle 1 (i.e., the first 28 days of topical agent application) and subsequently every four weeks. Patients were managed with adequate safety (adverse event) monitoring and pharmacokinetic (PK) analysis in order to determine levels of exposure.

[8] = tested on: NCI-ES-0808; assay: Cell growth / viability assay, NCI-ES-0808; format: cell-based
Procedure: as §2

[9] = tested on: squamous cell carcinoma and human prostate cell carcinoma; conditions: 2.5 μg 3 doses daily for 3 days, followed by paclitaxel; cited from earlier work
[10] = tested on: EMT-6 murine breast tumor; conditions: topical pretreatment + cyclophosphamide vs either agent alone; cited from earlier work
[11] = tested on: guinea pigs; assay: Skin sensitization study in guinea pigs; format: in vivo, guinea pig; conditions: 5.7 μg/g
Procedure: Induction phase. […] The induction exposure was repeated at the same skin site once a week for 2 weeks. The vehicle and positive control groups composed of 5 male and 5 female guinea pigs, each of which were exposed in the same manner as the treatment group to propylene glycol/anhydrous ethanol or hexylcinnamic aldehyde (a known mild to moderate skin-sensitizer), respectively. Skin reactions were scored and recorded at approximately 24 hours after patch removal during the induction phase. After the last induction exposure, the animals remained untreated for two weeks before the challenge exposure.
Challenge phase. The challenge exposure was conducted two weeks after the final topical induction. The test article was topically applied to the Vehicle Control and Test Group at the concentration determined to be non-irritating in the irritation screen. The Vehicle Control Group was also challenged with the Vehicle. The Positive Control Groups received the positive control article. The challenge application sites were scored at approximately 24 and 48 hours after patch removal.

For `C=C1/C(=C\C=C2/CCC[C@]3(C)[C@@H]([C@H](C)CCCC(C)(C)O)CC[C@@H]23)C[C@@H](O)C[C@@H]1O` [Calcitriol, (5Z,7E)-9,10-secocholesta-5,7.10(19Hriene-1 a,33.25-triol], the “survival rate vs ethanol vehicle” value [1] is given as “No statistically significant difference in the survival rate”, the “SLC1A1 mRNA Regulation Pattern” value ([2]; at 16 hrs) is given as “upregulated at” and the “KCNN4 mRNA Regulation Pattern” value ([2]; at 48 hours) is given as “upregulated at 48”. The “KCNB2 mRNA Regulation Pattern” value [2] was “upregulated”, the “KCNB2 mRNA Regulation Pattern” value ([2]; listed as Vitamin D3) was “upregulated until” and the “regrowth of hair in alopecic lesions” value [3] was “No regrowth of hair”. For the same molecule, the “skin layers in which calcitriol was measurable” value ([4]; 1-100 μg/mL, exception: dermis at 100 μg/mL in a single male minipig) was “measurable in most stratum corneum and epidermal samples, but not in the dermal samples”, the “applied dose correlation to epidermal tissue level” value ([4]; 3 to 100 μg/mL applications) was “near linear increase” and the “Stratum Corneum, Calcitriol Recovered” value ([4]; Female Minipigs) was 1.65 ± 1.80 (3) ng/cm^2. For the same molecule, the “Stratum Corneum, Calcitriol Recovered” value ([4]; Male Minipigs) was 59.6 ± 14.1 (3) ng/cm^2, the “DNAJC6 mRNA Regulation Pattern” value [5] was “Downregulated” and the “HSF4 mRNA Regulation Pattern” value [5] was “Upregulated at 48 hours”. The “HSPA2 mRNA Regulation Pattern” value [5] was “Upregulated at 48 hours”, the “HSPB1 mRNA Regulation Pattern” value [5] was “Down regulated at 48 hours” and the “effect of calcitriol on cell growth” value [6] was “no significant growth promoting or growth inhibiting effects”. The “effect of calcitriol on the cytotoxic effect of Doxorubicin” value [6] was “did not appear to appreciably alter”, the “AEs Related to Study Drug” value ([7]; 5 μg/mL × 1 mL BID) was “Mild Scalp pain (1)” and the “serious adverse events reported (number)” value ([7]; all dose levels) was 25. The “dose limiting toxicities (DLTs)” value ([7]; human, in vivo) was “No dose limiting toxicities”, the “serious adverse events unrelated/unlikely to the study drug” value ([7]; human, in vivo, 3 months) was 84% and the “serious adverse events unrelated/unlikely to the study drug (number)” value ([7]; human, in vivo, 3 months) was 21. For the same molecule, the “serious adverse events possibly related to the study drug (number)” value ([7]; one patient, 40 μg/mL, passing a renal calculi) was 4, the “maximum tolerated dose (MTD)” value ([7]; up to 80 μg/mL) was “not detected” and the “effect of calcitriol on cell growth” value [8] was “no significant growth promoting or growth inhibiting effects”. The “effect of calcitriol on the cytotoxic effect of Doxorubicin” value [8] was “did not appear to appreciably alter”, the tumor response [9] was “significant tumor regression” and the “rate of tumor growth” value [10] was “greater reduction in the rate of tumor growth”. For the same molecule, the skin sensitization [11] was “not determined to be a sensitizer”.
